Measured values from the supplement of paper PMC10784567.
± gives the standard deviation of the averaged measurements.

Compound: C=C1C[C@H]2C=Nc3cc(OCCCCCOc4cc5c(cc4OC)C(=O)N4CC(=C)C[C@H]4C=N5)c(OC)cc3C(=O)N2C1 [SG2057]
Test: absolute IC50 (cell viability, CellTiter-Glo); higher = less potent
Details: treatment time: 3 days
Protocol: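 Large cancer cell line panel screens in 384-well plates. Cells were treated for 3 days with a 9-point dose titration of the free PBD dimer SG2057; viability was read with CellTiter-Glo. Absolute IC50 came from a four-parameter Hill fit normalised to the median of vehicle (DMSO) wells. Several independent screens (projects) per cell line are averaged; values in µM, lowest-dose floor about 1.524e-5 µM.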

Test System	absolute IC50 [nM]
HCC1534	3.18 ± 2.4
HeLa	1.8
CGTH-W-1	0.189
23132/87	1 ± 1.2
HCC1954	1.35 ± 3.1
B16-F1	0.595
SW 1463	7.83 ± 8.2
HCC1159	0.67
Ishikawa	0.311
LUDLU-1	9.43
WSU-DLCL2	0.358 ± 0.36
MCF-7	2.5 ± 1.7
DOV 13	0.241 ± 0.31
HCC44	0.762 ± 0.59
HUH-7	1.82
OVCA 420	2.24 ± 2.3
Hs 852.T	0.582 ± 0.063
HPAF-II	4.04 ± 0.15
MX-1	2.51 ± 2
PL-21	1.38 ± 1.2
MG-63	0.284
Caki-2	10.2 ± 19
JHH-1	2.07 ± 3.1

Test System	absolute IC50 [nM]
A549	0.926 ± 1.4
A172	0.554
MDA-MB-157	1.86 ± 1.7
1624-17091 (Tumor B)	2.12
Kasumi-1	4.11
SK-N-AS	0.187
HCC70 (DODx)	4.647 ± 0.017
COLO 206F	2.54 ± 2.5
KG-1	1.22 ± 0.91
RERF-LC-KJ	1.65 ± 2.5
MKN-1	0.867 ± 1.1
HCC1010	0.134 ± 0.12
COLO 201	0.782
RERF-LC-OK	0.729 ± 1
4498-16820 Mel-BR1	0.55
MPC-11	0.229
BOKU	0.258
FTC-238	0.101
VP267	4.86
T98G	3.18 ± 3.7
KPP14449	1.53
B-CPAP	0.345
NAMALWA	0.0643 ± 0.031

Test System	absolute IC50 [nM]
NCI-H920	9.13
NCI-H727	6.75
SW 1990	0.516 ± 0.22
JJ012 (DODx)	1.42
KHM-1B	0.335 ± 0.24
COR-L279	0.082
HCC2688	0.282
NB-1	< 0.0152
AsPC-1	5.12 ± 5.9
HCC366	4.65
IM-95	2.41
HCT-8	1.43
PK-45H	1.2 ± 0.94
KMS-27	0.164 ± 0.0027
ECC-1	1.04
C-33 A	0.0527
OCI-LY-10	< 0.0152
SUM 149PT	1.68 ± 1.6
KMS-21BM	0.26 ± 0.051
COLO 794	0.0985 ± 0.063
KM-12	3.65
SK-N-BE(2)	1.64
SK-HEP-1	0.205

Test System	absolute IC50 [nM]
YAPC	1.16 ± 0.74
Capan-2	4.33 ± 0.82
COLO 792	3.47
CA46	0.354 ± 0.53
HEC-88nu	3.07
Calu-3	1.55 ± 0.058
Caki-1	0.052
NCI-H2595	2.2 ± 1.9
NCI-H1650	2.52
769-P	4.38 ± 4.6
NCI-H810	1.42
KP-3	2.41 ± 1.7
NCI-H1651	0.443
1624-17082 (Tumor A)	0.887
OCI-M1	0.227 ± 0.13
CAL 27	0.164
NCI-H2373	0.217 ± 0.18
RMUG-S	1.92 ± 0.051
Daudi	0.155 ± 0.24
H322T	2.68 ± 2.1
UMC-11	14.8
MS751	0.683
HCC-15	2.35 ± 3.1

Test System	absolute IC50 [nM]
COLO 685	1.32
Hs 294T	0.469 ± 0.75
COLO 853	1 ± 0.73
HCC880	2.86
HEC-59	0.472
NCI-H1975 (MB)	0.206
MCAS	0.42 ± 0.58
PK-1	1.53 ± 1.3
NCI-H2073	28.9
UACC-62	0.77 ± 0.36
KLN 205	2.12
HEC-1-A	3.86
HPAC	13.2 ± 25
SU.86.86	0.733 ± 0.48
MEL-JUSO	0.875 ± 1
NCI-H522	0.544
SNU-16	0.344 ± 0.1
MDA-MB-361	1.96 ± 2.5
HEC-151	0.352
NCI-H2023	0.142 ± 0.27
SU-DHL-6	0.536 ± 0.73
OE33	0.0612
RVH-421	0.569

Test System	absolute IC50 [nM]
HT-115	1.59 ± 0.21
NCI-H146	0.508
NCI-H2122	2.98 ± 1.3
105KC (DODx)	3.56
MOR	8.9
OCI-M2	0.275 ± 0.0079
4498-16820 Mel-BR1 X1	0.911
COLO 684	5
KP-N-SI9s	0.0551
KYSE-520	1.01
SIMA	0.863
JHH-6	3.4
HL-60	5.24
Panc 02.03	2.51 ± 3.8
ATRFLOX	0.211 ± 0.41
RERF-GC-1B	1.07 ± 1
CAL-120	2.01 ± 2.9
KMM-1	0.515 ± 0.079
BE(2)-M17	0.494
SKG-IIIa	17.7
TRAMP-C1	0.345
SK-MEL-2	1.16 ± 0.55
TK-10	2.7 ± 2.1

Test System	absolute IC50 [nM]
EFE-184	5.81 ± 7.5
T.T	1.93
537 MEL	1.23 ± 0.94
OVTOKO	0.557 ± 0.55
RPMI 2650	0.539 ± 0.27
Hs 578T	1.51 ± 1.3
ID8	0.292
NCI-H2452	2.95 ± 3
G59	0.803 ± 0.82
HuCCT1	2.63 ± 2.5
Hepa 1-6	0.286
HCC1623	5.3
KATO III	5.09
SNB-19	0.187
HN	0.225
NCI-H1975	2
1624-16997 (Tumor B)	0.909
SK-MEL-31	3.78
8305C	0.706
1624-17095 (Tumor B)	5.51
4T1 Luciferase	3.01
59M	1.47
CL-34	1.69 ± 3.5

Test System	absolute IC50 [nM]
KYSE-150	0.194
G142	0.556 ± 1
HM7	0.488 ± 0.27
KARPAS-299	0.581 ± 1.1
KPP14388 LN	0.49
KMS-34	0.272 ± 0.27
KINGS-1	2.75
KMS-26	0.0823 ± 0.024
KR7110	1.36
MDA-MB-435	1.76 ± 2.4
HCC2218	1.16
EFM-192A	1.2
WM-115	0.436 ± 0.57
AB22	4.95
HCC4017	0.193
MOLP-8	0.212 ± 0.014
RCM-1	3.33 ± 5.4
HT-1080	0.569 ± 0.14
Hep 3B2.1-7	3.83 ± 2.6
OPM-2	1.63 ± 1.2
MFM-223	0.743 ± 0.14
RC-K8	0.667 ± 1
